For 20 compounds, T/C results are on record in PubChem BioAssay AID330 (DTP/NCI, 2004).

Several values for one entry are separate records, joined by “and”; a condition that tells them apart may be missing. Equal entries are not always repeated. Inconclusive results and toxic doses are left out.

This assay concerns P388 leukemia ip, CD2F1 mice, survival T/C. The assay is described as follows: NCI In Vivo Anticancer Drug Screen. Data for tumor model P388 Leukemia (intraperitoneal) in CD2F1 (CDF1) mice. Conditions: endpoint: median survival time, higher = longer survival. Put shortly: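 Mice carrying the transplanted tumor received test compound or vehicle. Survival was recorded in each group, and the value is the treated-group measurement divided by that of the vehicle-treated control group.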

Setting [1] is: dose: 50.0 mg/kg/injection, schedule: Q01DX009 (ip), vehicle: saline.
[2] abbreviates: dose: 50.0 mg/kg/injection, schedule: Q01DX005 (ip), vehicle: saline with Tween-80.
Where [3] appears, read: dose: 100.0 mg/kg/injection, schedule: Q01DX005 (ip), vehicle: saline with Tween-80.
The mark [4] stands for this setting: dose: 200.0 mg/kg/injection, schedule: Q01DX005 (ip), vehicle: saline with Tween-80.
[5] abbreviates: dose: 50.0 mg/kg/injection, schedule: Q01DX005 (ip), vehicle: Klucel (hydroxypropylcellulose) (HPC).
[6] abbreviates: dose: 12.5 mg/kg/injection, schedule: Q01DX005 (ip), vehicle: saline with Tween-80.
The mark [7] stands for this setting: dose: 25.0 mg/kg/injection, schedule: Q01DX005 (ip), vehicle: saline with Tween-80.

Turning to `Cc1cc(NCCc2ccccc2)cc(=O)n1CCc1ccccc1`, the T/C was 97 % of control (dose: 60.0 mg/kg/injection, schedule: Q01DX005 (ip), vehicle: Klucel (hydroxypropylcellulose) (HPC)); 100 % of control (dose: 120.0 mg/kg/injection, schedule: Q01DX005 (ip), vehicle: Klucel (hydroxypropylcellulose) (HPC)); 94 % of control (dose: 240.0 mg/kg/injection, schedule: Q01DX005 (ip), vehicle: Klucel (hydroxypropylcellulose) (HPC)).

Consider `CCCCC(CC)C[N+]1(C)CCOCC1` (stereo not given), for which the T/C is 100 % of control (dose: 12.5 mg/kg/injection, schedule: Q01DX009 (ip), vehicle: saline); 100 % of control (dose: 25.0 mg/kg/injection, schedule: Q01DX009 (ip), vehicle: saline); 94 % of control under setting [1].

In the case of `Fc1ccc(N2CSC(=S)N(c3ccc(F)cc3F)C2)c(F)c1`, the T/C is, setting by setting: under setting [2], 107 % of control; under setting [3], 104 % of control; under setting [4], 95 % of control.

For the compound `CCN(Cc1ccc(CN(CC)C(=O)c2c(-c3ccccc3)noc2C)cc1)C(=O)c1c(-c2ccccc2)noc1C`, the T/C is, setting by setting: (dose: 50.0 mg/kg/injection, schedule: Q01DX009 (ip), vehicle: suspension in saline) 90 % of control; (dose: 100.0 mg/kg/injection, schedule: Q01DX009 (ip), vehicle: suspension in saline) 92 % of control; (dose: 200.0 mg/kg/injection, schedule: Q01DX009 (ip), vehicle: suspension in saline) 86 % of control and 94 % of control.

`CCCCCCCCCC(=O)OC(C)C(=O)N(CCCC)CCCC` (stereo not given): the T/C was 110 % of control (dose: 100.0 mg/kg/injection, schedule: Q01DX009 (ip), vehicle: saline with Tween-80); 102 % of control (dose: 200.0 mg/kg/injection, schedule: Q01DX009 (ip), vehicle: saline with Tween-80); 106 % of control (dose: 400.0 mg/kg/injection, schedule: Q01DX009 (ip), vehicle: saline with Tween-80).

As to `COc1c(N)c2c(c([N+](=O)[O-])c1OC)C(=O)OC2`, the T/C by setting is: under setting [5], 103 % of control; (dose: 100.0 mg/kg/injection, schedule: Q01DX005 (ip), vehicle: Klucel (hydroxypropylcellulose) (HPC)) 93 % of control; (dose: 200.0 mg/kg/injection, schedule: Q01DX005 (ip), vehicle: Klucel (hydroxypropylcellulose) (HPC)) 97 % of control.

`C(=C/c1cc2ccc(C3=NCCN3)cc2o1)/c1cc2ccc(C3=NCCN3)cc2[nH]1`: the T/C is, setting by setting: (dose: 50.0 mg/kg/injection, schedule: Q04DX003 (ip), vehicle: suspension in saline) 114 % of control; (dose: 100.0 mg/kg/injection, schedule: Q04DX003 (ip), vehicle: suspension in saline) 158 % of control and 164 % of control; (dose: 200.0 mg/kg/injection, schedule: Q04DX003 (ip), vehicle: suspension in saline) 298 % of control.

In the case of `CC(C)(C)C1=CP(=O)(c2ccccc2)C=C(C(C)(C)C)N1`, the T/C reads like this: under setting [2], 106 % of control; under setting [3], 108 % of control; under setting [4], 98 % of control.

Turning to `CN(Cc1cnc2nc(N[Si](C)(C)C)nc(N[Si](C)(C)C)c2n1)c1ccc(C(=O)NC(CCC(=O)O[Si](C)(C)C)C(=O)O[Si](C)(C)C)cc1` (stereo not given), the T/C (dose: 0.63 mg/kg/injection, schedule: Q01DX009 (ip), vehicle: saline) was 165 % of control; the T/C (dose: 1.25 mg/kg/injection, schedule: Q01DX009 (ip), vehicle: saline) was 191 % of control; the T/C (dose: 1.9 mg/kg/injection, schedule: Q04DX003 (ip), vehicle: saline) was 159 % of control; the T/C (dose: 2.5 mg/kg/injection, schedule: Q01DX009 (ip), vehicle: saline) was 226 % of control; the T/C (dose: 3.8 mg/kg/injection, schedule: Q04DX003 (ip), vehicle: saline) was 177 % of control; the T/C (dose: 7.5 mg/kg/injection, schedule: Q04DX003 (ip), vehicle: saline) is 195 % of control. Also, the T/C is 218 % of control (dose: 15.0 mg/kg/injection, schedule: Q04DX003 (ip), vehicle: saline); 236 % of control (dose: 30.0 mg/kg/injection, schedule: Q04DX003 (ip), vehicle: saline); 109 % of control (dose: 60.0 mg/kg/injection, schedule: Q04DX003 (ip), vehicle: saline).

Take `O=C(Nc1ccc2c(O)c(N=Nc3ccc(N=Nc4ccc(S(=O)(=O)O)cc4)cc3)c(S(=O)(=O)O)cc2c1)c1ccccc1`: the T/C under setting [1] was 100 % of control; the T/C (dose: 100.0 mg/kg/injection, schedule: Q01DX009 (ip), vehicle: saline) was 95 % of control; the T/C (dose: 200.0 mg/kg/injection, schedule: Q01DX009 (ip), vehicle: saline) was 103 % of control.

Consider `COc1ccc2c(C(=O)O)cc3c4ccccc4ncc3c2c1`, for which the T/C runs as follows: (dose: 12.5 mg/kg/injection, schedule: Q01DX009 (ip), vehicle: distilled water + Tween-80) 100 % of control; (dose: 25.0 mg/kg/injection, schedule: Q01DX009 (ip), vehicle: distilled water + Tween-80) 95 % of control; (dose: 50.0 mg/kg/injection, schedule: Q01DX009 (ip), vehicle: distilled water + Tween-80) 98 % of control; (dose: 100.0 mg/kg/injection, schedule: Q01DX009 (ip), vehicle: distilled water + Tween-80) 96 % of control; (dose: 200.0 mg/kg/injection, schedule: Q01DX009 (ip), vehicle: distilled water + Tween-80) 99 % of control.

On to `COc1cc2c(OC)c(c1)CCCC1=CC(=O)C=C(CCC2)C1=O`, for which the T/C is, setting by setting: under setting [2], 94 % of control; (dose: 100.0 mg/kg/injection, schedule: Q01DX001 (ip), vehicle: Klucel (hydroxypropylcellulose) (HPC)) 92 % of control; under setting [3], 103 % of control; (dose: 200.0 mg/kg/injection, schedule: Q01DX001 (ip), vehicle: Klucel (hydroxypropylcellulose) (HPC)) 100 % of control; under setting [4], 100 % of control; (dose: 400.0 mg/kg/injection, schedule: Q01DX001 (ip), vehicle: Klucel (hydroxypropylcellulose) (HPC)) 90 % of control.

Turning to `CO/N=C1\CC(C)N2C(=O)C(C(C)C)NC(=O)C(NC(=O)c3c4nc5c(C(=O)NC6C(=O)NC(C(C)C)C(=O)N7C(C)CC(O)C7C(=O)N(C)CC(=O)N(C)C(C(C)C)C(=O)OC6C)ccc(C)c5oc-4c(C)c(=O)c3N)C(CO)OC(=O)C(C)N(C)C(=O)CN(C)C(=O)C12` (stereo not given), the T/C runs as follows: under setting [6], 161 % of control; under setting [7], 180 % of control.

For `CC(=O)Nc1ccc(N=NN(C)c2ccccc2)cc1`, the T/C by setting is: (dose: 50.0 mg/kg/injection, schedule: Q01DX001 (ip), vehicle: saline) 104 % of control; (dose: 100.0 mg/kg/injection, schedule: Q01DX001 (ip), vehicle: saline) 100 % of control.

Take `CCCOC(=O)C1C2CCC(O2)C1C(=O)O` (stereo not given): the T/C runs as follows: (dose: 6.25 mg/kg/injection, schedule: Q01DX005 (ip), vehicle: saline) 106 % of control; (dose: 12.5 mg/kg/injection, schedule: Q01DX005 (ip), vehicle: saline) 103 % of control.

Regarding `Cn1cnc2cc3c(cc2c1=O)nc1n3CCOC1`, the T/C reads like this: (dose: 100.0 mg/kg/injection, schedule: Q04DX003 (ip), vehicle: Klucel (hydroxypropylcellulose) (HPC)) 103 % of control; (dose: 200.0 mg/kg/injection, schedule: Q04DX003 (ip), vehicle: Klucel (hydroxypropylcellulose) (HPC)) 100 % of control; (dose: 400.0 mg/kg/injection, schedule: Q04DX003 (ip), vehicle: Klucel (hydroxypropylcellulose) (HPC)) 93 % of control.

On to `Fc1ccccc1C(Nc1cnccn1)Nc1cnccn1`, for which the T/C was 96 % of control under setting [6]; 102 % of control under setting [7]; 102 % of control and 109 % of control under setting [2]; 109 % of control under setting [3]; 111 % of control under setting [4].

`NC(N)=Nc1ccc(-c2cc3cc(N=C(N)N)ccc3s2)cc1`: the T/C runs as follows: (dose: 6.25 mg/kg/injection, schedule: Q01DX005 (ip), vehicle: Klucel (hydroxypropylcellulose) (HPC)) 108 % of control; (dose: 12.5 mg/kg/injection, schedule: Q01DX005 (ip), vehicle: Klucel (hydroxypropylcellulose) (HPC)) 105 % of control; (dose: 25.0 mg/kg/injection, schedule: Q01DX005 (ip), vehicle: Klucel (hydroxypropylcellulose) (HPC)) 115 % of control; under setting [5], 168 % of control.

For `Cc1ccc(C(=O)OC2C3(C)CCC(C3)C2(C)C)cc1` (stereo not given), the T/C reads like this: (dose: 60.0 mg/kg/injection, schedule: Q01DX005 (ip), vehicle: saline with Tween-80) 100 % of control; (dose: 120.0 mg/kg/injection, schedule: Q01DX005 (ip), vehicle: saline with Tween-80) 100 % of control; (dose: 240.0 mg/kg/injection, schedule: Q01DX005 (ip), vehicle: saline with Tween-80) 94 % of control.

Take `Cc1cc(OCCCCCCC[N+](C)(C)Cc2ccc([N+](=O)[O-])o2)c(C(C)C)cc1Cl`: the T/C (dose: 12.5 mg/kg/injection, schedule: Q04DX003 (ip), vehicle: saline) was 99 % of control and the T/C (dose: 25.0 mg/kg/injection, schedule: Q04DX003 (ip), vehicle: saline) was 92 % of control.
